Some test systems named below: SNB-78 CNS; M19-MEL melanoma; LXFL 529 NSCLC; XF 498 CNS; DMS 114 small cell lung; DLD-1 colon; HOP-18 NSCLC; DMS 273 small cell lung; RXF-631 renal.
What all share (assay): DTP human tumour cell line panel, 48 h

The values that follow come from PubChem BioAssay (NCI).

Each structure is given as a SMILES string.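 All cell lines were grown in 96-well plates and treated with compound for 48 hours. TGI denotes the concentration required for complete inhibition of growth.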

For orientation: TGI means the concentration at which net growth stops. A higher TGI goes with lower sensitivity of the cells. For the compound `COc1cc2cccc(NC(=O)c3cc(OC)c(OC)c(OC)c3Br)c2cc1OC`, the TGI in the assay on SNB-78 CNS was 49 µM; in the assay with M19-MEL melanoma, 32.5 µM; with LXFL 529 NSCLC, 10.9 µM; in the assay on XF 498 CNS, 7.37 µM; in the assay on DMS 114 small cell lung it was 12.8 µM; in the assay with DLD-1 colon it was > 100 µM. For the same compound, the TGI in the assay with HOP-18 NSCLC is 74.4 µM.

Consider `C=CCCCCCC(O)C(O)C/C=C\C/C=C\CC` (configuration not stated), for which the TGI in the assay on SNB-78 CNS, in the assay on LXFL 529 NSCLC, with DMS 273 small cell lung, in the assay with XF 498 CNS, in the assay on DMS 114 small cell lung and in the assay on DLD-1 colon was > 18.8 µM throughout. Further, the TGI in the assay with HOP-18 NSCLC is > 18.8 µM.

For `N#CN1CCC=C(c2cc3ccccc3[nH]2)C1`, the TGI in the assay on M19-MEL melanoma, in the assay on RXF-631 renal, in the assay with LXFL 529 NSCLC, in the assay on DMS 273 small cell lung, in the assay with DLD-1 colon and in the assay with HOP-18 NSCLC was > 448 µM in each case.

Consider `N#CC(NNC(=O)c1ccccc1O)c1ccccc1` (configuration not stated), for which the TGI with SNB-78 CNS was > 100 µM; in the assay on M19-MEL melanoma it was > 100 µM; with LXFL 529 NSCLC, > 100 µM; in the assay with DMS 273 small cell lung, > 100 µM; in the assay on DMS 114 small cell lung, 4.87 µM; in the assay with DLD-1 colon, > 100 µM. For the same compound, the TGI with HOP-18 NSCLC was > 100 µM.

On to `COc1ccccc1/C=N/N=C(\N)NO`, for which the TGI with SNB-78 CNS, in the assay on M19-MEL melanoma, in the assay with LXFL 529 NSCLC, with DMS 114 small cell lung, in the assay with DLD-1 colon and in the assay with HOP-18 NSCLC was > 100 µM each time.

Take `COc1ccc(CCc2ccccc2CC(=O)O)cc1`: the TGI with SNB-78 CNS, in the assay on M19-MEL melanoma, in the assay with LXFL 529 NSCLC, in the assay on DMS 273 small cell lung, with XF 498 CNS and in the assay with DMS 114 small cell lung was > 100 µM in each case. In addition, the TGI in the assay with DLD-1 colon and with HOP-18 NSCLC was > 100 µM in each case.

In the case of `CS/C(c1ccccc1)=[N+](/C)[O-]`, the TGI in the assay with SNB-78 CNS, in the assay on M19-MEL melanoma, with RXF-631 renal, in the assay with LXFL 529 NSCLC, in the assay on XF 498 CNS and in the assay with DLD-1 colon was > 100 µM throughout. For the same compound, in the assay on HOP-18 NSCLC, the TGI was > 100 µM.

Regarding `c1ccc2c3c([nH]c2c1)C1(CCCCC1)c1c([nH]c2ccccc12)C31CCCCC1`, the TGI is 45.4 µM in the assay with SNB-78 CNS; > 100 µM with M19-MEL melanoma; > 100 µM with LXFL 529 NSCLC; 59 µM with DMS 273 small cell lung; > 100 µM in the assay with XF 498 CNS; > 100 µM in the assay on DMS 114 small cell lung. Also, the TGI in the assay with DLD-1 colon was > 100 µM; in the assay with HOP-18 NSCLC it was 68.2 µM.

Turning to `C/C(=N\O)C(CN1CCCCC1)C(c1ccccc1)c1c(O)c2ccccc2oc1=O` (configuration not stated), the TGI in the assay with M19-MEL melanoma, in the assay on LXFL 529 NSCLC, in the assay on XF 498 CNS, in the assay on DMS 114 small cell lung and in the assay with DLD-1 colon was > 100 µM in each case.

Take `CCN(CC)c1cccc2c1C1(O)CCC3(CC21)OCCCCO3` (configuration not stated): the TGI in the assay on SNB-78 CNS, in the assay on M19-MEL melanoma, in the assay with LXFL 529 NSCLC, in the assay on DMS 273 small cell lung, with DMS 114 small cell lung and with DLD-1 colon was > 100 µM each time. The TGI with HOP-18 NSCLC is > 100 µM.

For `CC1=NN(C(=O)c2ccc(Cl)cc2)C(=O)/C1=C/c1ccc(O)cc1`, the TGI in the assay with M19-MEL melanoma, in the assay on LXFL 529 NSCLC, in the assay with XF 498 CNS, in the assay with DMS 114 small cell lung and in the assay on DLD-1 colon was > 100 µM in each case.

Consider `COC1=CC(=O)[C@]2(C)[C@H](C1=O)C(C)[C@H]2c1ccccc1` (some centres not stated), for which the TGI in the assay with SNB-78 CNS, in the assay on M19-MEL melanoma, in the assay on RXF-631 renal, in the assay with LXFL 529 NSCLC, in the assay with DMS 273 small cell lung and with XF 498 CNS was > 100 µM each time. For the same compound, the TGI in the assay on DLD-1 colon is > 100 µM.

As for `CC(C)(c1ccc(OC#N)cc1)c1ccc(OC#N)cc1`, the TGI in the assay on SNB-78 CNS was > 100 µM; in the assay on M19-MEL melanoma, > 100 µM; in the assay with RXF-631 renal, > 100 µM; with LXFL 529 NSCLC, > 100 µM; with DMS 114 small cell lung it was > 56.9 µM; with DLD-1 colon, > 100 µM. In addition, in the assay with HOP-18 NSCLC, the TGI is > 100 µM.

Take `Cc1ccc(S(=O)(=O)c2c3[nH]c4ccccc4nc3n3c2nc2ccccc23)cc1`: the TGI with SNB-78 CNS, in the assay on M19-MEL melanoma, in the assay on LXFL 529 NSCLC, in the assay with DMS 273 small cell lung, with XF 498 CNS and with DMS 114 small cell lung was > 100 µM in each case. The TGI with DLD-1 colon was > 100 µM.

For the compound `C/C(=N\NC(=S)NNC(=S)N(C)c1ccccc1)c1ccccn1`, the TGI is > 100 µM in the assay on SNB-78 CNS; 7.59 µM with M19-MEL melanoma; > 100 µM in the assay on LXFL 529 NSCLC; > 100 µM in the assay with DMS 273 small cell lung; > 100 µM in the assay on XF 498 CNS; 12.6 µM in the assay with DMS 114 small cell lung. The TGI in the assay with DLD-1 colon is > 100 µM; with HOP-18 NSCLC it was 0.732 µM.
